Results from patent publication US11857565B2, “Hydrophobic Auristatin F compounds and conjugates thereof” (priority 2018, dated 2024).
Starred links: 1 amine or outer side, 2 acyl side, 3 side chain; linkers in the order of their positions; H or OH if unused. Non-standard residues stand in square brackets, D forms with d. Residues, ends and D or L forms follow the SMILES beside them. *: point of attachment. X4 = CC(C)[C@@H](C(=O)[*:2])N(CCCCN(C)C(=O)OC(C)(C)C)[*:1]; Dolaproine = CO[C@@H]([C@@H]1CCCN1)[C@@H](C)C(=O)O; X2 = CC(C)[C@@H](C(=O)[*:2])N(C)CCCCCN(C)[*:1]; X3 = CC(C)[C@@H](C(=O)[*:2])N(C)CCCCN(C)[*:1]; X7 = CC(C)[C@@H](C(=O)[*:2])N(C)CCN(C)[*:1]; Dil = CC[C@H](C)[C@H](NC)[C@@H](CC(=O)O)OC; X6 = CC(C)[C@@H](C(=O)[*:2])N(C)CCCN[*:1]; X1 = C[C@@H](N*)[C@@H](O)c1ccccc1; NMeV = CN[C@H](C(=O)O)C(C)C; Boc = CC(C)(C)OC(=O)*

Assays:
Format in all cases: cell-based
IGR-37 Melanoma = test: In vitro cytotoxicity, free drugs on IGR-37; conditions: free drug
Protocol: (§1) The cytotoxicity of an auristatin Ligand Drug Conjugate or free auristatin drug was measured by a cell proliferation assay employing the protocol described in Promega Corp. Technical Bulletin TB288; Mendoza et al., 2002, Cancer Res. 62:5485-5488), the methods of which is specifically incorporated by reference herein. Briefly, an aliquot of 100 μl of cell culture containing about […] (e.g., HL-60, SK-MEL-5, etc.) in medium is deposited in each well of a 96-well, opaque-walled plate. Control wells were prepared containing medium and without cells. Free Drug or conjugate is added to the experimental wells and incubated for 96 h and are then equilibrated to room temperature for approximately 30 minutes whereupon a volume of CellTiter-Glo™ reagent equal to the volume of cell culture medium present in each well is added. The contents are mixed for 2 minutes on an orbital shaker to induce cell lysis and the plate is incubated at room temperature for 10 minutes to stabilize the luminescence signal for recordation.

[1] = system: MDR+ HL60/RV acute myeloid leukemia cell line; test: In vitro cytotoxicity (CellTiter-Glo cell proliferation assay), free drugs on HL60/RV; conditions: free drug, 96 h incubation; read-out: In vitro IC50 HL60/RV (MDR+)
Protocol: as §1

[2] = In vitro cytotoxicity, free drugs on Colo-853; conditions: free drug; read-out: In vitro IC50 Colo-853 Colon Cancer
Protocol: as §1

SK-MEL-28 Melanoma = test: In vitro cytotoxicity, free drugs on SK-MEL-28; conditions: free drug
Protocol: as §1

[3] = system: MDR− HL60 acute myeloid leukemia cell line; test: In vitro cytotoxicity (CellTiter-Glo cell proliferation assay), free drugs on HL60; conditions: free drug, 96 h incubation; read-out: In vitro IC50 HL60 (MDR−)
Protocol: as §1

A375 Melanoma = test: In vitro cytotoxicity, free drugs on A375; conditions: free drug
Protocol: as §1

SK-MEL-5 Melanoma = test: In vitro cytotoxicity, free drugs on SK-MEL-5; conditions: free drug
Protocol: as §1

A2058 Melanoma = test: In vitro cytotoxicity, free drugs on A2058; conditions: free drug
Protocol: as §1

L428 Hodgkin Lymphoma = test: In vitro cytotoxicity, 4-load auristatin ADCs on L428; conditions: 4-load ADC
Protocol: as §1

[4] = system: 786-O Renal Cell Carcinoma; test: In vitro cytotoxicity, 4-load auristatin ADCs on 786-O; conditions: 4-load ADC
Protocol: as §1

[5] = system: A498 Renal Cell Carcinoma; test: In vitro cytotoxicity, 4-load auristatin ADCs on A498; conditions: 4-load ADC
Protocol: as §1

Molecule: CC[C@H](C)[C@@H]([C@@H](CC(=O)N1CCC[C@H]1[C@H](OC)[C@@H](C)C(=O)N[C@H](C)[C@@H](O)c1ccccc1)OC)N(C)C(=O)[C@@H](NC(=O)[C@@H](NC)C(C)C)C(C)C [Compound 3, Monomethyl auristatin E, reference compound] (H-[NMeV]V[Dil][Dolaproine]-X1)
- IC50 (IGR-37 Melanoma): 0.2 nM
- IC50 [1]: 180 nM
- IC50 [2]: 0.1 nM
- IC50 (SK-MEL-28 Melanoma): 0.1 nM
- IC50 [3]: 1 nM
- IC50 (A375 Melanoma): 0.1 nM
- IC50 (SK-MEL-5 Melanoma): 0.1 nM
- IC50 (A2058 Melanoma): 0.1 nM

Molecule: CC[C@H](C)[C@@H]([C@@H](CC(=O)N1CCC[C@H]1[C@H](OC)[C@@H](C)C(=O)N[C@@H](Cc1ccccc1)C(=O)O)OC)N(C)C(=O)[C@@H](NC(=O)[C@H](C(C)C)N(C)CCCNC(=O)OC(C)(C)C)C(C)C [Compound 18, N-Boc-propyl-AF] (Boc-[X6]V[Dil][Dolaproine]F-OH)
- IC50 (IGR-37 Melanoma; Homo sapiens, IGR-37): 13.7 nM
- IC50 [2]: 17.5 nM
- IC50 (SK-MEL-28 Melanoma; Homo sapiens, SK-MEL-28): 21 nM
- IC50 (A375 Melanoma; Homo sapiens, A-375): 4.9 nM
- IC50 (SK-MEL-5 Melanoma; Homo sapiens, SK-MEL-5): 4 nM
- IC50 (A2058 Melanoma; Homo sapiens, A2058): 9.1 nM

Molecule: CC[C@H](C)[C@@H]([C@@H](CC(=O)N1CCC[C@H]1[C@H](OC)[C@@H](C)C(=O)N[C@@H](Cc1ccccc1)C(=O)O)OC)N(C)C(=O)[C@@H](NC(=O)[C@H](C(C)C)N(C)CCN(C)C(=O)OC(C)(C)C)C(C)C [Compound 24, Boc-(N-methyl-ethyl)-AF] (Boc-[X7]V[Dil][Dolaproine]F-OH)
- IC50 (IGR-37 Melanoma; Homo sapiens, IGR-37): 23.1 nM
- IC50 [2]: 19.6 nM
- IC50 (SK-MEL-28 Melanoma; Homo sapiens, SK-MEL-28): 13.9 nM
- IC50 (A375 Melanoma; Homo sapiens, A-375): 4.9 nM
- IC50 (SK-MEL-5 Melanoma; Homo sapiens, SK-MEL-5): 5.7 nM
- IC50 (A2058 Melanoma; Homo sapiens, A2058): 5.2 nM

Molecule: CC[C@H](C)[C@@H]([C@@H](CC(=O)N1CCC[C@H]1[C@H](OC)[C@@H](C)C(=O)N[C@@H](Cc1ccccc1)C(=O)O)OC)N(C)C(=O)[C@@H](NC(=O)[C@H](C(C)C)N(C)CCCCN(C)C(=O)OC(C)(C)C)C(C)C [Compound 16, (Boc-N-methyl)-butyl-AF] (Boc-[X3]V[Dil][Dolaproine]F-OH)
- IC50 (IGR-37 Melanoma; Homo sapiens, IGR-37): 2.5 nM
- IC50 [2]: 6.2 nM
- IC50 (SK-MEL-28 Melanoma; Homo sapiens, SK-MEL-28): 4.4 nM
- IC50 (A375 Melanoma; Homo sapiens, A-375): 0.7 nM
- IC50 (SK-MEL-5 Melanoma; Homo sapiens, SK-MEL-5): 0.4 nM
- IC50 (A2058 Melanoma; Homo sapiens, A2058): 0.9 nM

Molecule: CC[C@H](C)[C@@H]([C@@H](CC(=O)N1CCC[C@H]1[C@H](OC)[C@@H](C)C(=O)N[C@@H](Cc1ccccc1)C(=O)O)OC)N(C)C(=O)[C@@H](NC(=O)[C@@H](NCCCCN(C)C(=O)OC(C)(C)C)C(C)C)C(C)C [Compound 17, (Boc-N-methyl)-butyl-AF] (H-[X4]V[Dil][Dolaproine]F-OH)
- IC50 (IGR-37 Melanoma; Homo sapiens, IGR-37): 62.7 nM
- IC50 [2]: 66.2 nM
- IC50 (SK-MEL-28 Melanoma; Homo sapiens, SK-MEL-28): 77.3 nM
- IC50 (A375 Melanoma; Homo sapiens, A-375): 14.8 nM
- IC50 (SK-MEL-5 Melanoma; Homo sapiens, SK-MEL-5): 26.2 nM
- IC50 (A2058 Melanoma; Homo sapiens, A2058): 20.3 nM

Molecule: CC[C@H](C)[C@@H]([C@@H](CC(=O)N1CCC[C@H]1[C@H](OC)[C@@H](C)C(=O)N[C@@H](Cc1ccccc1)C(=O)O)OC)N(C)C(=O)[C@@H](NC(=O)[C@H](C(C)C)N(C)CCCCCN(C)C(=O)OC(C)(C)C)C(C)C [Compound 26, (Boc-N-methyl)-pentyl-AF] (Boc-[X2]V[Dil][Dolaproine]F-OH)
- IC50 (IGR-37 Melanoma; Homo sapiens, IGR-37): 6.5 nM
- IC50 [2]: 12.5 nM
- IC50 (SK-MEL-28 Melanoma; Homo sapiens, SK-MEL-28): 9.6 nM
- IC50 (A375 Melanoma; Homo sapiens, A-375): 2.1 nM
- IC50 (SK-MEL-5 Melanoma; Homo sapiens, SK-MEL-5): 0.9 nM
- IC50 (A2058 Melanoma; Homo sapiens, A2058): 0.9 nM

B1: h1F6-37(4): 4-load auristatin ADC targeting CD70: h1F6 antibody conjugated to drug linker compound 37 (conjugate, chains of the INN, looked up)
VH: QVQLVQSGAEVKKPGASVKVSCKASGYTFTNYGMNWVRQAPGQGLKWMGWINTYTGEPTYADAFKGRVTMTRDTSISTAYMELSRLRSDDTAVYYCARDYGDYGMDYWGQGTTVTVSS
VL: DIVMTQSPDSLAVSLGERATINCRASKSVSTSGYSFMHWYQQKPGQPPKLLIYLASNLESGVPDRFSGSGSGTDFTLTISSLQAEDVAVYYCQHSREVPWTFGQGTKVEIK
modifications: auristatin drug linker compound 37, 4-load
- In vitro IC50 L428 Hodgkin Lymphoma (L428 Hodgkin Lymphoma): 2 ng/mL
- In vitro IC50 786-O Renal Cell Carcinoma [4]: 23 ng/mL
- In vitro IC50 A498 Renal Cell Carcinoma [5]: 39 ng/mL

B2: h1F6-mc-vc-MMAF(4): comparator 4-load h1F6 ADC having an mc-vc-MMAF drug linker (conjugate, chains of the INN, looked up)
VH: B1 VH
VL: B1 VL
modifications: mc-vc-MMAF, 4-load
notes: comparator 4-load h1F6 ADC having an mc-vc-MMAF drug linker
- In vitro IC50 L428 Hodgkin Lymphoma (L428 Hodgkin Lymphoma): 7 ng/mL
- In vitro IC50 786-O Renal Cell Carcinoma [4]: 5 ng/mL
- In vitro IC50 A498 Renal Cell Carcinoma [5]: 8 ng/mL

B3: h1F6-36(4): 4-load auristatin ADC targeting CD70: h1F6 antibody conjugated to drug linker compound 36 (conjugate, chains of the INN, looked up)
VH: B1 VH
VL: B1 VL
modifications: auristatin drug linker compound 36, 4-load
- In vitro IC50 L428 Hodgkin Lymphoma (L428 Hodgkin Lymphoma): 1 ng/mL
- In vitro IC50 786-O Renal Cell Carcinoma [4]: 4 ng/mL
- In vitro IC50 A498 Renal Cell Carcinoma [5]: 9 ng/mL

B4: h1F6-35(4): 4-load auristatin ADC targeting CD70: h1F6 antibody conjugated to drug linker compound 35 (conjugate, chains of the INN, looked up)
VH: B1 VH
VL: B1 VL
modifications: auristatin drug linker compound 35, 4-load
- In vitro IC50 L428 Hodgkin Lymphoma (L428 Hodgkin Lymphoma): 2 ng/mL
- In vitro IC50 786-O Renal Cell Carcinoma [4]: 7 ng/mL
- In vitro IC50 A498 Renal Cell Carcinoma [5]: 23 ng/mL

B5: h1F6-mc-vc-MMAE(4): comparator 4-load h1F6 ADC having an mc-vc-MMAE drug linker (conjugate, chains of the INN, looked up)
VH: B1 VH
VL: B1 VL
modifications: mc-vc-MMAE, 4-load
notes: comparator 4-load h1F6 ADC having an mc-vc-MMAE drug linker
- In vitro IC50 L428 Hodgkin Lymphoma (L428 Hodgkin Lymphoma): >1000 ng/mL
- In vitro IC50 786-O Renal Cell Carcinoma [4]: >1000 ng/mL
- In vitro IC50 A498 Renal Cell Carcinoma [5]: >1000 ng/mL

B6: h1F6-38(4): 4-load auristatin ADC targeting CD70: h1F6 antibody conjugated to drug linker compound 38 (conjugate, chains of the INN, looked up)
VH: B1 VH
VL: B1 VL
modifications: auristatin drug linker compound 38, 4-load
- In vitro IC50 L428 Hodgkin Lymphoma (L428 Hodgkin Lymphoma): 2 ng/mL
- In vitro IC50 786-O Renal Cell Carcinoma [4]: 12 ng/mL
- In vitro IC50 A498 Renal Cell Carcinoma [5]: 36 ng/mL
